Experimental findings from US20140205553A1, “AGENT FOR ENHANCING THE EFFECT OF SKIN-WHITENING INGREDIENTS AND USES THEREOF” (Hayashibara Co., Ltd., priority 2010, published 2014) are described below.

Read-outs that look alike come from different tables or passages of the source.

The assay deals with mouse B16 melanoma cells. The assay can be described thus: Melanin formation by mouse B16 melanoma cells cultured with test samples (melanin content, absorbance 450 nm). In kind it is cell-based. The method, then:
The effect of nucleic-acid-related compounds on melanin-formation inhibition was evaluated by using mouse B16 melanoma cells frequently used as an index for evaluating skin-whitening agents used in external dermatological agents. Since nucleic-acid-related compounds are roughly classified into purine and pyrimidine compounds, the following respective representative compounds were used as test samples. […] Thereafter, cells were collected after adding trypsin-EDTA to each well and subjecting the resultant to centrifugation. The collected cells were washed once with Dulbecco's PBS (-) (abbreviated as “D-PBS”, hereinafter) and centrifuged to remove the supernatant. To the remaining cell pellet was added 0.5 ml of 1N sodium hydroxide to solubilize the cells. The resulting alkali-solubilized solution was boiled for 30 min and determined for melanin content by the following method. […] Each of these wells was assayed for melanin content similarly as above. […] In this and the following experiments, it means that the lower the melanin formation percentage, the higher the melanin-formation inhibitory effect, i.e., the skin-whitening effect.

[1] abbreviates: test sample 1 μM in liquid culture medium, 5 days, negative control = 100.
The mark [2] stands for this setting: test sample 5 μM in liquid culture medium, 5 days, negative control = 100.
Where [3] appears, read: test sample 10 μM in liquid culture medium, 5 days, negative control = 100.
Where [4] appears, read: test sample 20 μM in liquid culture medium, 5 days, negative control = 100.
Where [5] appears, read: Mus musculus, B16, 120 h, test sample 1 μM in liquid culture medium, 5 days, negative control = 100, read-out: Melanin formation percentage.
The mark [6] stands for this setting: Mus musculus, B16, 120 h, test sample 2.5 μM in liquid culture medium, 5 days, negative control = 100, read-out: Melanin formation percentage.
Where [7] appears, read: Mus musculus, B16, 120 h, test sample 5 μM in liquid culture medium, 5 days, negative control = 100, read-out: Melanin formation percentage.
The mark [8] stands for this setting: Mus musculus, B16, 120 h, test sample 10 μM in liquid culture medium, 5 days, negative control = 100, read-out: Melanin formation percentage.
Where [9] appears, read: Mus musculus, B16, 120 h, test sample 20 μM in liquid culture medium, 5 days, negative control = 100, read-out: Melanin formation percentage.
Setting [10] is: Experiment 1, test sample 10 μM.
Where [11] appears, read: Experiment 2, test sample 5 μM alone.
Where [12] appears, read: Mus musculus, B16, 120 h, molar ratio guanine:adenine or equol 0:1, total concentration 5 μM, read-out: Melanin formation percentage.

As for glucosylguanosine, the Melanin formation percentage is listed as 99% under setting [1]; 98% (test sample 2.5 μM in liquid culture medium, 5 days, negative control = 100); 98% under setting [2]; 99% under setting [3]; 99% under setting [4].
For the compound `Oc1ccc([C@H]2COc3cc(O)ccc3C2)cc1` [S-Equol, S-equol], the Melanin formation percentage under setting [1] is recorded as 86% and the Melanin formation percentage under setting [2] was found to be 60%.
`Nc1nc2c(ncn2[C@@H]2O[C@H](CO)[C@@H](O)[C@H]2O)c(=O)[nH]1` [Guanosine, guanosine]: the activity at 1 µM under setting [5] worked out at 99%. Also, the activity at 2.5 µM under setting [6] turned out to be 98%. Besides, the activity at 5 µM under setting [7] stood at 98%. In addition, the activity at 10 µM under setting [8] turned out to be 102%. For the same compound, the activity at 20 µM under setting [9] stood at 97%.
Consider `Nc1nc2nc[nH]c2c(=O)[nH]1` [Guanine], for which the “Melanin-formation inhibition (in words)” value is given as “no melanin-formation inhibition was observed” under setting [10] and “No melanin-formation inhibition was found” under setting [11]. For the same compound, the activity at 5 µM by setting is: (Mus musculus, B16, 120 h, read-out: Melanin formation percentage, molar ratio guanine:adenine or equol 1:0, total concentration 5 μM) 98%; (Mus musculus, B16, 120 h, read-out: Melanin formation percentage, test sample 5 μM in liquid culture medium, 5 days, negative control = 100) 98%. Also, under “Mus musculus, B16, 120 h, read-out: Melanin formation percentage, test sample 1 μM in liquid culture medium, 5 days, negative control = 100”, the activity at 1 µM stood at 100%. For the same compound, the activity at 2.5 µM (Mus musculus, B16, 120 h, read-out: Melanin formation percentage, test sample 2.5 μM in liquid culture medium, 5 days, negative control = 100) is 99%. The activity at 10 µM (Mus musculus, B16, 120 h, read-out: Melanin formation percentage, test sample 10 μM in liquid culture medium, 5 days, negative control = 100) came out at 98%. The activity at 20 µM (Mus musculus, B16, 120 h, read-out: Melanin formation percentage, test sample 20 μM in liquid culture medium, 5 days, negative control = 100) is 101%.
For the compound `Nc1ncnc2c1ncn2[C@@H]1O[C@H](CO)[C@@H](O)[C@H]1O` [Adenosine, adenosine], under setting [6], the activity at 2.5 µM worked out at 98%. Besides, the activity at 5 µM under setting [7] came to 94%. Moreover, under setting [8], the activity at 10 µM turned out to be 71%. The activity at 20 µM under setting [9] was 48%.
With `Nc1ncnc2c1ncn2[C@@H]1O[C@H](COP(=O)(O)O)[C@@H](O)[C@H]1O` [Adenosine 5′-monophosphate, adenosine 5′-monophosphate], the activity at 2.5 µM under setting [6] is 97%. For the same compound, the activity at 5 µM under setting [7] was 100%. For the same compound, the activity at 10 µM under setting [8] is 82%. Further, the activity at 20 µM under setting [9] was 60%.
Regarding `Nc1nc2c(ncn2[C@@H]2O[C@H](COP(=O)(O)OP(=O)(O)O)[C@@H](O)[C@H]2O)c(=O)[nH]1` [Guanosine 5′-diphosphate, guanosine 5′-diphosphate], the activity at 5 µM under setting [7] came out at 93%. Further, under setting [8], the activity at 10 µM was 100%. Also, the activity at 20 µM under setting [9] stood at 95%.
`Cc1c[nH]c(=O)[nH]c1=O` [Thymine, reference compound]: the “Melanin-formation inhibition (in words)” value by setting is: under setting [10], “no melanin-formation inhibition was observed”; under setting [11], “No melanin-formation inhibition was found”. Moreover, the activity at 5 µM under setting [7] worked out at 99%. The activity at 10 µM under setting [8] turned out to be 97%.
Take `O=c1[nH]c(=O)c2[nH]cnc2[nH]1` [Xanthine, reference compound]: the “Melanin-formation inhibition (in words)” value is “no melanin-formation inhibition was observed” under setting [10] and “No melanin-formation inhibition was found” under setting [11]. Further, under setting [7], the activity at 5 µM was found to be 100%. Under setting [8], the activity at 10 µM was found to be 100%.
For the compound glucosyladenosine, the Melanin formation percentage runs as follows: under setting [2], 89%; under setting [3], 63%; under setting [4], 43%.
Regarding `OC[C@H]1O[C@H](Oc2ccc3c(c2)OC[C@H](c2ccc(O)cc2)C3)[C@H](O)[C@@H](O)[C@@H]1O` [7-Glucosyl-S-equol, 7-O-α-D-glycopyranosyl-S-equol], the Melanin formation percentage under setting [1] was 85% and the Melanin formation percentage under setting [2] was 75%.
The matching figures for `OC[C@H]1O[C@H](Oc2ccc([C@H]3COc4cc(O)ccc4C3)cc2)[C@H](O)[C@@H](O)[C@@H]1O` [4′-Glucosyl-S-equol, 4′-O-α-D-glycopyranosyl-S-equol]: 85% and 74%.
In the case of `Nc1cc[nH]c(=O)n1` [Cytosine, reference compound], the “Melanin-formation inhibition (in words)” value reads like this: under setting [10], “no melanin-formation inhibition was observed”; under setting [11], “No melanin-formation inhibition was found”. Moreover, the activity at 5 µM under setting [7] worked out at 98%. Further, the activity at 10 µM under setting [8] amounted to 100%.
Consider `Nc1ncnc2c1ncn2[C@@H]1O[C@H](COP(=O)(O)OP(=O)(O)O)[C@@H](O)[C@H]1O` [Adenosine 5′-diphosphate, adenosine 5′-diphosphate], for which the activity at 5 µM under setting [7] stood at 93%. In addition, the activity at 10 µM under setting [8] amounted to 81%. Under setting [9], the activity at 20 µM came to 51%.
As to `Nc1ncnc2nc[nH]c12` [Adenine], the “Melanin-formation inhibition (in words)” value under setting [10] is “inhibited”. For the same compound, the activity at 5 µM under setting [12] amounted to 83% and the activity at 5 µM under setting [7] came out at 83%. Moreover, the activity at 2.5 µM under setting [6] came out at 95%. Further, the activity at 10 µM under setting [8] turned out to be 60%. Further, the activity at 20 µM under setting [9] amounted to 39%.
Take `O=c1[nH]cnc2nc[nH]c12` [Hypoxanthine, reference compound]: the “Melanin-formation inhibition (in words)” value is, setting by setting: under setting [10], “no melanin-formation inhibition was observed”; under setting [11], “No melanin-formation inhibition was found”. Moreover, the activity at 5 µM under setting [7] was found to be 97%. Under setting [8], the activity at 10 µM was found to be 97%.
For `O=c1cc(CO)occ1O` [Kojic acid, reference compound], the activity at 500 µM (Mus musculus, B16, 120 h, test sample 500 μM in liquid culture medium, 5 days, negative control = 100, read-out: Melanin formation percentage) was determined as 71%. For the setting “Mus musculus, B16, 120 h, test sample 1000 μM in liquid culture medium, 5 days, negative control = 100, read-out: Melanin formation percentage”, the activity at 1000 µM was 49%. In addition, the activity at 2000 µM (Mus musculus, B16, 120 h, test sample 2000 μM in liquid culture medium, 5 days, negative control = 100, read-out: Melanin formation percentage) was 30%. Under “at the concentrations used in the experiment”, the “Melanin-formation-inhibitory action of the test sample alone (in words)” value is given as “inhibited the melanin formation by mouse B16 melanoma cells in a concentration dependent manner”.
As for `Nc1nc2c(ncn2[C@@H]2O[C@H](COP(=O)(O)O)[C@@H](O)[C@H]2O)c(=O)[nH]1` [Guanosine 5′-monophosphate, guanosine 5′-monophosphate], under setting [5], the activity at 1 µM turned out to be 99%. Besides, under setting [6], the activity at 2.5 µM turned out to be 99%. Besides, the activity at 5 µM under setting [7] was 100%. Under setting [8], the activity at 10 µM turned out to be 101%. Under setting [9], the activity at 20 µM came out at 101%.
As for `Nc1ncnc2c1ncn2[C@@H]1O[C@H](COP(=O)(O)OP(=O)(O)OP(=O)(O)O)[C@@H](O)[C@H]1O` [Adenosine 5′-triphosphate, adenosine 5′-triphosphate], the activity at 5 µM under setting [7] is 93%. Moreover, the activity at 10 µM under setting [8] amounted to 80%. For the same compound, the activity at 20 µM under setting [9] was determined as 53%.
In the case of `Oc1ccc([C@H]2COc3cc(O)ccc3C2)cc1` [Equol, equol], the activity at 5 µM came out at 91% under setting [12] and 67% under setting [7]. In addition, the activity at 1 µM under setting [5] stood at 91%. For the setting “skin-whitening ingredient together with guanine including derivatives or other nucleic-acid-related compound”, the “Enhancement of the skin-whitening (melanin-formation-inhibitory) action in combination (in words)” value was “enhanced”.
Take `OC[C@H]1O[C@@H](n2cnc3c(O)ncnc32)[C@H](O)[C@@H]1O` [Inosine, reference compound]: the “Melanin-formation inhibition (in words)” value under setting [10] was “no melanin-formation inhibition was observed” and the “Melanin-formation inhibition (in words)” value under setting [11] is reported as “No melanin-formation inhibition was found”. Further, under setting [7], the activity at 5 µM was determined as 98%. Further, the activity at 10 µM under setting [8] worked out at 96%.
As for `Oc1ccc([C@@H]2COc3cc(O)ccc3C2)cc1` [R-Equol, R-equol], the Melanin formation percentage by setting is: under setting [1], 94%; under setting [2], 77%.
Turning to `Nc1nc2c(ncn2[C@@H]2O[C@H](COP(=O)(O)OP(=O)(O)OP(=O)(O)O)[C@@H](O)[C@H]2O)c(=O)[nH]1` [Guanosine 5′-triphosphate, guanosine 5′-triuphosphate], the Melanin formation percentage by setting is: under setting [2], 95%; under setting [3], 98%; under setting [4], 97%.
`O=c1cc[nH]c(=O)[nH]1` [Uracil, reference compound]: the “Melanin-formation inhibition (in words)” value is listed as “no melanin-formation inhibition was observed” under setting [10] and “No melanin-formation inhibition was found” under setting [11]. The activity at 5 µM under setting [7] turned out to be 98%. Moreover, the activity at 10 µM under setting [8] was 99%.
